We go through two compounds from PMC11167047 (Cell Death Discovery, 2024).

Molecules are shown by their SMILES.

What all share (test): kinome screen (33PanQinase)
Common to all, as to type: biochemical

One assay concerns the target T1, MARK4 (Homo sapiens, UniProt Q96L34).
T1 construct: purchased Reaction Biology Europe GmbH (formerly ProQinase)
T1 sequence (Q96L34 1-752): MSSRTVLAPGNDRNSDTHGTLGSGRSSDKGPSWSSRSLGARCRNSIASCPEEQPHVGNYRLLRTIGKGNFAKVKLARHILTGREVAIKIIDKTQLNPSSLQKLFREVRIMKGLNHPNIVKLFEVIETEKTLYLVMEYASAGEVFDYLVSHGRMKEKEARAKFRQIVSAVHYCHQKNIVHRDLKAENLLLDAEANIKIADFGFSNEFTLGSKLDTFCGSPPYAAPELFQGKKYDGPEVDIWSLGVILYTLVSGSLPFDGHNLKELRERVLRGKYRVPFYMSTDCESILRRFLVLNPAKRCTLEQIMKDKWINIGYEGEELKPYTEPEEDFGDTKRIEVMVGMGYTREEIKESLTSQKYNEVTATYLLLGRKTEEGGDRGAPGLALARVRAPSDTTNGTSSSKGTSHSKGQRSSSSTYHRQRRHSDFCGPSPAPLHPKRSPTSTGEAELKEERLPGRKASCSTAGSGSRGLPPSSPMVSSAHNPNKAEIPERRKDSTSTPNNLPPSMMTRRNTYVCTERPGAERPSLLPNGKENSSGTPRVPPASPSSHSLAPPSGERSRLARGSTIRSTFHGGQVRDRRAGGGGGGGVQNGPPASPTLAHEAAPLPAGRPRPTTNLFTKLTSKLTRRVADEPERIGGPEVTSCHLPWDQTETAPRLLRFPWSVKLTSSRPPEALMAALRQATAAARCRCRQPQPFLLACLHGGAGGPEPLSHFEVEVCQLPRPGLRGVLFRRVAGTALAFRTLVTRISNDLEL
Here is the method: (§1) The Kinome Screening was performed by Reaction Biology Europe GmbH (http://reactionbiology.com; Freiburg i. Br., Germany).

The next assay deals with T2, WNK1 (Homo sapiens, UniProt Q9H4A3).
T2 construct: purchased Reaction Biology Europe GmbH (formerly ProQinase)
Here is the method: as §1

A further assay concerns the target T3, NEK3 (Homo sapiens, UniProt P51956).
T3 construct: purchased Reaction Biology Europe GmbH (formerly ProQinase)
T3 sequence (P51956 1-506): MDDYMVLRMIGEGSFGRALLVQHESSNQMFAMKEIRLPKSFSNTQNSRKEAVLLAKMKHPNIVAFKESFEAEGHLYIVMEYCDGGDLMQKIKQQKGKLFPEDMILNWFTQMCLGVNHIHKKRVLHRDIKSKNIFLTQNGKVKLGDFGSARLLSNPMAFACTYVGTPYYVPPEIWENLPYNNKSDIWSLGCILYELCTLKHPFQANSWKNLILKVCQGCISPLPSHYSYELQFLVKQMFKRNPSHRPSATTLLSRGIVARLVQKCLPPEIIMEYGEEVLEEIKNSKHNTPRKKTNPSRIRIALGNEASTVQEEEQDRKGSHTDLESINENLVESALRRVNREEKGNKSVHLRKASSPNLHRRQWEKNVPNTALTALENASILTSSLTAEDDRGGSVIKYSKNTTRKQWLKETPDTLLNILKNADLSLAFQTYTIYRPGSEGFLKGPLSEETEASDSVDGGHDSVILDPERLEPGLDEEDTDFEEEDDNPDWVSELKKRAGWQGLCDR
Here is the method: as §1

In a further assay the target is T4, PIM1 (Homo sapiens, UniProt P11309).
T4 construct: purchased Reaction Biology Europe GmbH (formerly ProQinase)
Here is the method: as §1

For a further assay, the target named is T5, ASK1 (Homo sapiens, UniProt Q99683).
T5 construct: purchased Reaction Biology Europe GmbH (formerly ProQinase)
T5 sequence (Q99683 1-1374): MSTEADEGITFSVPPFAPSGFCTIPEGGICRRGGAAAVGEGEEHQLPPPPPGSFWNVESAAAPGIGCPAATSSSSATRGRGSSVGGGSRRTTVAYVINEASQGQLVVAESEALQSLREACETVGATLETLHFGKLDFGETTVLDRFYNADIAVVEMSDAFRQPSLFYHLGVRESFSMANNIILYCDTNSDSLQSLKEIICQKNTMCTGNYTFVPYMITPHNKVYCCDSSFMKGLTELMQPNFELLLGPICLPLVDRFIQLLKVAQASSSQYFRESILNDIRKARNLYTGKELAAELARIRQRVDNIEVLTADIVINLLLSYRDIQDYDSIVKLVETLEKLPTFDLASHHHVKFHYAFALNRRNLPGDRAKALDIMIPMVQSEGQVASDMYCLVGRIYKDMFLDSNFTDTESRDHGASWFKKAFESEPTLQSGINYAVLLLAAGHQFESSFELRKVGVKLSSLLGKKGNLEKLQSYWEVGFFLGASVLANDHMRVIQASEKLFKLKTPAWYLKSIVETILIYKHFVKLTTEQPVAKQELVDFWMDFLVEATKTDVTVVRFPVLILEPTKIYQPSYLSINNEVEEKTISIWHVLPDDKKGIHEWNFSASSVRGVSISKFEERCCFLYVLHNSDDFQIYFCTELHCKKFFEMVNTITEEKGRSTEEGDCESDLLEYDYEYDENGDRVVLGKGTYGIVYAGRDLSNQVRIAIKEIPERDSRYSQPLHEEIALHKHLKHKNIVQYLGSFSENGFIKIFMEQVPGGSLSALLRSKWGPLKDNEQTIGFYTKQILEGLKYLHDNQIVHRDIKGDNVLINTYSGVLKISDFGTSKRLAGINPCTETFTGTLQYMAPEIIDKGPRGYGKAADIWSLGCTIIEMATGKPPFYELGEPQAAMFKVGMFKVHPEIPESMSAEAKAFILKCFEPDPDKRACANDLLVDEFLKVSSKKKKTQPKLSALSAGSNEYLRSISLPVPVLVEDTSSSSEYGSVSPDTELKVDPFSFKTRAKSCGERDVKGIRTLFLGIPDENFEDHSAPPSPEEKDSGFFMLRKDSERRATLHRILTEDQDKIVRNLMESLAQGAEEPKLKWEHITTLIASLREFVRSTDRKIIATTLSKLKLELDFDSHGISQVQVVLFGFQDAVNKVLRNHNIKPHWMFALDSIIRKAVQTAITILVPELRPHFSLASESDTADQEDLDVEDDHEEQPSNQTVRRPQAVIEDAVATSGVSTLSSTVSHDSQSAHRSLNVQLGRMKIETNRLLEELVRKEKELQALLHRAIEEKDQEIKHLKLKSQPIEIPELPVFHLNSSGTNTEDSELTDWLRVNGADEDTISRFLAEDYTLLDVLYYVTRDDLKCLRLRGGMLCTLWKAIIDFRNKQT
How it is done:
as §1

The target of a further assay is T6, MAPKAPK3 (Homo sapiens, UniProt Q16644).
T6 construct: purchased Reaction Biology Europe GmbH (formerly ProQinase)
Here is the method:
as §1

The next assay addresses T7, CDK13/CycK (Homo sapiens, UniProt Q14004).
T7 construct: purchased Reaction Biology Europe GmbH (formerly ProQinase)
How it is done:
as §1

T4 sequence (P11309 whole entry): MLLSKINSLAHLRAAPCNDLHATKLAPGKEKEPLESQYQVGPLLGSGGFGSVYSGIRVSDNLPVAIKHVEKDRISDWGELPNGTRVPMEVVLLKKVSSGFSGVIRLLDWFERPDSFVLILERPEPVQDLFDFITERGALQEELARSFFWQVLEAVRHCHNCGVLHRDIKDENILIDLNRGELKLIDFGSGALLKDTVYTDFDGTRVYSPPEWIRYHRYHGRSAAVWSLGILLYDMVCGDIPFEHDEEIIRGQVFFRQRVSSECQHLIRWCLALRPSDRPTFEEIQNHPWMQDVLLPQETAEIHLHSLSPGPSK
T7 sequence (Q14004 whole entry): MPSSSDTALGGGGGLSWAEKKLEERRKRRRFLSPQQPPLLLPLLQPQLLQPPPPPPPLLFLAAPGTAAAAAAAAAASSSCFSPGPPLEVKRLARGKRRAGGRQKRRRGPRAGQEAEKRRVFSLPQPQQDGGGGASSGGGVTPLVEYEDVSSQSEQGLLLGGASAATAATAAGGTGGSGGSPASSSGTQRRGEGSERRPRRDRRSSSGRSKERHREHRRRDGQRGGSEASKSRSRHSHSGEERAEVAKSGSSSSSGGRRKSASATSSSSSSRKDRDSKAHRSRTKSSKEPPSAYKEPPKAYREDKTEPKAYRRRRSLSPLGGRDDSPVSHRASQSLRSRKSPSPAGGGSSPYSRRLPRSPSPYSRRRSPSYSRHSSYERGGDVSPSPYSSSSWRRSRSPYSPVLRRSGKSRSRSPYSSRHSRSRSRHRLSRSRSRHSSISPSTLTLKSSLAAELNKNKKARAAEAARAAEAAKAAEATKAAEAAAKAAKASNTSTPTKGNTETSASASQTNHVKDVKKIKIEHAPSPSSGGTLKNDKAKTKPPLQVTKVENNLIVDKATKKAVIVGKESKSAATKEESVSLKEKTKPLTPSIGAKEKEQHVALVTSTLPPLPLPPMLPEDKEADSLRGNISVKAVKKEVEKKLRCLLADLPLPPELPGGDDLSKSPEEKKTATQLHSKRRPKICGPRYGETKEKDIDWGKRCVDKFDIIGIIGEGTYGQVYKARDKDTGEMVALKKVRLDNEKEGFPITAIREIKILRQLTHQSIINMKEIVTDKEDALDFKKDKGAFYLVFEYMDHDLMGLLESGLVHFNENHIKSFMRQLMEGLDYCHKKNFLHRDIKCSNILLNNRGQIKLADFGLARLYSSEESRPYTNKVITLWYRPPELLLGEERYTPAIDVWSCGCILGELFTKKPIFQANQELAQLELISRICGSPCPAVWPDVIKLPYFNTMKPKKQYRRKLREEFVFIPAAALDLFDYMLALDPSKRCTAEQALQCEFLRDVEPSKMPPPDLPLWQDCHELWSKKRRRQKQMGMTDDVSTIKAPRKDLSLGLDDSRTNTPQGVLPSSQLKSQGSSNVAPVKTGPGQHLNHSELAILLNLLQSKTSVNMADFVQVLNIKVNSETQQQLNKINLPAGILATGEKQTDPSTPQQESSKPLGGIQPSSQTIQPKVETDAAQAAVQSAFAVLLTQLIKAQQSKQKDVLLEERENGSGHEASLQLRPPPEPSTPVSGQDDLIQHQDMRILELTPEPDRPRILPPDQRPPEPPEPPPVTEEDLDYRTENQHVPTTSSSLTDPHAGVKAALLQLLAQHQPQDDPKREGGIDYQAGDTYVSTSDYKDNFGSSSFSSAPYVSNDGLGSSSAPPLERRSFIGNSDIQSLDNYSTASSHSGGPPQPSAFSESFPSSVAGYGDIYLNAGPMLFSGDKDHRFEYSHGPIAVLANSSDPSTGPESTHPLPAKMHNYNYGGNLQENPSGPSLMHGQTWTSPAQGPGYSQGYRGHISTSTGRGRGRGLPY
T7 sequence (O75909 whole entry partner): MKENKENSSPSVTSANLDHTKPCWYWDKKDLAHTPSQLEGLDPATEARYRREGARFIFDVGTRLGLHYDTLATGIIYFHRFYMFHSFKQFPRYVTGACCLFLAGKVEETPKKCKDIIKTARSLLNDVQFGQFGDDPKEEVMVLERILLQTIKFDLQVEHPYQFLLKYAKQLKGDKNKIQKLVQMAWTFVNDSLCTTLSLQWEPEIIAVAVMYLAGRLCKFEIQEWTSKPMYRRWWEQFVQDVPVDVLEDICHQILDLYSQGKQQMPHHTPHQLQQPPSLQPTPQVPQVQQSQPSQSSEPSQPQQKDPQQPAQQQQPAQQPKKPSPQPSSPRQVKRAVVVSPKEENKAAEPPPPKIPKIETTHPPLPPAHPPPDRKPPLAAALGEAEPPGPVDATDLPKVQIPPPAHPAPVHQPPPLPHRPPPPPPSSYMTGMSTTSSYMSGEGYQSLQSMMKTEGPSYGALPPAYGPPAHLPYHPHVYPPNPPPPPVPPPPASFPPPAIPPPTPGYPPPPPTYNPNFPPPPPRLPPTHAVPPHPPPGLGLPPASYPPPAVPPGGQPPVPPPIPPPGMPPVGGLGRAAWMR
T6 sequence (Q16644 whole entry): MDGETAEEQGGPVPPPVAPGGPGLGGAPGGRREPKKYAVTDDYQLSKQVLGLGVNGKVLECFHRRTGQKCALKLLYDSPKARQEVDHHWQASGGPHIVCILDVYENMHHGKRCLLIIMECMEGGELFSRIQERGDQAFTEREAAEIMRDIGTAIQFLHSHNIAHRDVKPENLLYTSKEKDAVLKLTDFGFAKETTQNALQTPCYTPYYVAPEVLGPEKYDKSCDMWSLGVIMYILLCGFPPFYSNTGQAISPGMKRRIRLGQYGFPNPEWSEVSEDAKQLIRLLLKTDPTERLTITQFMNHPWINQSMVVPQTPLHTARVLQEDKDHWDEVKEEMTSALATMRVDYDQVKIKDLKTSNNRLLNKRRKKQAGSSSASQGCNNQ

For the compound `c1ccc(CNc2cc(-c3c[nH]c4ncccc34)ccn2)cc1` [meriolin 36], the residual kinase activity at MARK4 (0.3 µM) is on record as 90 % of control; at MARK4 (3 µM), 54 % of control; at WNK1 (0.3 µM), 107 % of control; on WNK1 (3 µM), 98 % of control; at NEK3 (0.3 µM), 94 % of control; on NEK3 (3 µM), 79 % of control. Besides, the residual kinase activity is on record as 55 % of control at PIM1 (0.3 µM); 14 % of control on PIM1 (3 µM); 50 % of control at ASK1 (0.3 µM); 15 % of control on ASK1 (3 µM); 90 % of control on MAPKAPK3 (3 µM); 12 % of control at CDK13/CycK (0.3 µM). Also, the residual kinase activity on CDK13/CycK (3 µM) is -10 % of control.

As for `COc1ccnc2[nH]cc(-c3cc(N)nc(N)c3)c12` [meriolin 16], the residual kinase activity at MARK4 (0.03 µM) is 99 % of control; on MARK4 (0.3 µM) it was 91 % of control; on WNK1 (0.03 µM) it was 101 % of control; on WNK1 (0.3 µM) it was 100 % of control; on NEK3 (0.03 µM) it was 96 % of control; at NEK3 (0.3 µM), 78 % of control. In addition, the residual kinase activity is given as 77 % of control at PIM1 (0.03 µM); 40 % of control on PIM1 (0.3 µM); 97 % of control on ASK1 (0.03 µM); 85 % of control on ASK1 (0.3 µM); 99 % of control at MAPKAPK3 (0.03 µM); 87 % of control at MAPKAPK3 (0.3 µM). The values for the residual kinase activity on CDK13/CycK (0.03 µM) and at CDK13/CycK (0.3 µM) were 31 % of control and 5 % of control, respectively.
